Experimental data: a compilation of properties of binary mixtures (doi:10.1007/s10953-010-9562-5)

Test: xn = mol fraction of the nth substance listed
Conditions: 101 kPa, x1 = 1

CC1COC(=O)O1 (stereo unspecified) + CCCC[N+]1(C)CCCC1.O=S(=O)([N-]S(=O)(=O)C(F)(F)F)C(F)(F)F
Conditions | electrical conductivity [S/m] | viscosity [mPa·s]
263.15 K | 0.001 | –
268.15 K | 0.001 | –
273.15 K | 0.001 | –
278.15 K | 0.001 | –
283.15 K | 0.001 | –
288.15 K | 0.001 | –
298.15 K | 0.002 | 2.52
308.15 K | 0.002 | 2.14
318.15 K | – | 1.85
